Source: publication PMC4391943, “Novel Epigallocatechin-3-Gallate (EGCG) Derivative as a New Therapeutic Strategy for Reducing Neuropathic Pain after Chronic Constriction Nerve Injury in Mice” (PLoS ONE, 2015)

Tests used:
[1] = design: method as in PMID 20008854, PMID 22559865, PMID 17902053; details: previously published toxicity studies; cited from earlier work
NF-κB = experiment: Western blot of nuclear NF-κB levels in the dorsal horn of the spinal cord; format: in vivo, mice; details: 50 mg/Kg, 14 dpi
Procedure: Subcellular fractionation was obtained by differential centrifugation as described elsewhere. Briefly, tissue was homogenized in lysis buffer (10 mM Tris-HCl pH 7.5, 1 mM EDTA, 1 mM Na3VO4, 0.25 M sucrose, 2 mM PMSF, 1 μg/μL aprotinin, 1 μg/μL leupeptin, 2 mM sodium orthovanadate). The homogenate was centrifuged at 2,000 × g for 10 min at 4°C to separate the nuclei fraction (P1). The P1 was resuspended in lysis buffer. The resulting supernatant was centrifuged at 10,000×g for 15 min at 4°C to obtain a crude membrane fraction (P2). The P2 was resuspended and incubated in the lysis buffer containing 0.5% Triton X-100 for 15 min, and then centrifuged at 25,000 × g for 20 min to obtain the synaptosomal membrane fraction (P3). Finally, the P3 was resuspended in lysis buffer and centrifuged on a discontinuous sucrose gradient (0.8 M, 1 M and 1.2 M) at 150,000×g for 2 h. Synaptic plasma membrane (SPM) was collected from the 1:1.2 M interface and resuspended in 50 mM HEPES, 2 mM EDTA, 1 mM PMSF, 10 μg/ml aprotinin, 1 μg/ml leupeptin and 2 mM sodium orthovanadate.
Western blotting was performed as previously described. The following primary antibodies were used: anti-FASN (1:1000, BD Bioscience, San Jose, CA); anti-TNF-α, anti-IL-1β, anti-IL-6 and anti-NFκB (all 1:500, Santa Cruz Biotechnology, Santa Cruz, CA); anti-phosphoNMDAR2B (Tyr1472) (1:2000, Affinity Bioreagents, Golden, CO) and anti-NMDAR2B (1:1000, Chemicon, Temecula, CA). Loading control was performed by reprobing the membranes with anti-actin (1:10,000; MP Biochemicals, Aurora, OH), anti-NeuN (1:1,000; Chemicon) or anti-N-cadherin (1:1000, BD Bioscience). Membranes were incubated with the corresponding horseradish peroxidase-conjugated antibody (1:2,000; Promega, Madison, WI). Immunoreactive bands were visualized using the Western Blotting Luminol Reagent and quantified by a computer-assisted densitometer (Gel-Pro Analyzer, version 4, Media Cybernetics).

[2] = Serum stability study, human serum; format: in vitro ADME; details: 37°C, 75% serum, 0.5 mM compound; for half-life at 0.5 mM: human serum (75% final serum content), read-out: half-life (t1/2) (converted)
Procedure: Peptide stabilities were assayed in diluted serum as previously described. Human serum (Sigma, S7023) or mouse serum (Europa Bioproducts, EQSM-0100) were incubated at 37°C for 10 min. The assay was initiated upon the addition of the test compound solved in PBS to the serum (75% final serum content) for a final compound concentration of 0.5 mM. Then, 500 µL aliquots of the incubations were taken for the following time points: 0, 15, 30, 60, 120 and 240 min. The aliquots were mixed with 750 µL of cold acetonitrile (ACN) and incubated at 4°C for 10 min to precipitate serum proteins. The supernatant was collected for each sample after centrifugation at 39,000 g for 10 min and were immediately analyzed by high performance liquid chromatography-mass spectrometry (HPLC-MS).

CCI-mice = experiment: Thermal hyperalgesia (plantar heat / Hargreaves test), paw withdrawal latency after chronic constriction injury; format: in vivo; details: for latency to paw withdrawal to a thermal stimulus: mean ± SEM, n = 5; for time-dependent effect on thermal paw withdrawal latency vs vehicle: 50 mg/Kg i.p., assessed weekly from 7 to 56 dpi, n = 15 (Fig 1)
Procedure: The chronic constriction injury (CCI) followed the procedure described elsewhere. Animals were anesthetized with sodium pentobarbital (50 mg/kg; i.p.), an incision was made in the right thigh, and the sciatic nerve was exposed. Two loose ligatures with 1 mm apart were then made around the nerve using the 6–0 poly-glycolic acid synthetic absorbable sutures. The incision was closed using 5–0 interrupted nylon sutures. A control group was included with sham surgery where the right sciatic nerve was exposed but not further manipulated.
For dose response studies, EGCG and the two synthetic EGCG derivatives compound 23 and compound 30 were administered by intra-peritoneal injection at 10, 30, 50 and 100 mg/Kg (n = 5 mice/compound/dose), 30 minutes after the CCI. To analyze the time-dependent effect EGCG and the two synthetic EGCG derivatives compound 23 and compound 30 were administered by intra-peritoneal injection at 50 mg/Kg (n = 15 mice/compound), 30 minutes after the CCI. Another set of animals were used to study the effect of 50 mg/kg of EGCG and the two synthetic EGCG derivatives compound 23 and compound 30 at 14 dpi (n = 15 mice/compound). In all cases, the administration was daily repeated during the first week. All compounds were dissolved in DMSO/saline solution (1:9; v/v), used as vehicle group.
To measure changes in thermal sensation we used the plantar heat test (Ugo Basile, Italy) as previously described. Briefly, mice were acclimated 5 days (15 min/day) prior to CCI. At 7, 14, 21, 28, 35, 42, 49 and 56 dpi, mice were enclosed in a clear Plexiglas box. After 15 min, during which the animals were provided with free exploration to habituate to the apparatus, infrared light beam was applied to the plantar surface of the […], and paw withdrawal latency was recorded in seconds. The infrared stimulus application automatically shut off at 30 seconds to avoid tissue damage. Four trials were measured randomly for right […] with at least 2 minutes between each trial.

TNF-α, IL-1β and IL-6 = experiment: Quantitative RT-PCR of cytokine mRNA in the dorsal horn of the spinal cord; format: in vivo, mice; details: 50 mg/Kg
Procedure: Total RNA was isolated from dorsal horn of spinal cord segments distal to T12 vertebra of all groups (n = 5 mice per group) using the Total RNA isolation nucleospin RNA II Kit. Purified RNA (600 ng) was reverse transcribed using the StrataScript First Strand cDNA Synthesis System. The cDNA synthesis was performed at 42°C for 60 minutes according to the manufacturer’s instructions. The cDNA was then analyzed by quantitative RT-PCR using the following TaqMan Gene Expression Assays (Applied Biosystems, Foster City, CA): 18S, HS99999901_s1; TNF-α, Mm00443258_m1; IL-1β, Mm00434228_m1; IL-6, Mm00446190_m1. The RT-PCR was performed as previously described. Analysis and quantification was obtained with the comparative quantification analysis program of the Mx-Pro Q-PCR Analysis software version 3.0 (Strategene).

[3] = 10 mg/Kg i.p. daily first week post-CCI, 7 dpi
[4] = 10 mg/Kg i.p. daily first week post-CCI, 21 dpi
[5] = 30 mg/Kg i.p. daily first week post-CCI, 7 dpi
[6] = 30 mg/Kg i.p. daily first week post-CCI, 21 dpi
[7] = 50 mg/Kg i.p. daily first week post-CCI, 7 dpi
[8] = 50 mg/Kg i.p. daily first week post-CCI, 21 dpi
[9] = 100 mg/Kg i.p. daily first week post-CCI, 7 dpi
[10] = 100 mg/Kg i.p. daily first week post-CCI, 21 dpi

Compound	changes on body weight versus the control group [1]	nuclear NF-κB levels (NF-κB)	half-life at 0.5 mM [2] [h]	latency to paw withdrawal to a thermal stimulus (CCI-mice; [3]) [s]	latency to paw withdrawal to a thermal stimulus (CCI-mice; [4]) [s]	latency to paw withdrawal to a thermal stimulus (CCI-mice; [5]) [s]	latency to paw withdrawal to a thermal stimulus (CCI-mice; [6]) [s]	latency to paw withdrawal to a thermal stimulus (CCI-mice; [7]) [s]	latency to paw withdrawal to a thermal stimulus (CCI-mice; [8]) [s]	time-dependent effect on thermal paw withdrawal latency vs vehicle (CCI-mice)	latency to paw withdrawal to a thermal stimulus (CCI-mice; [9]) [s]	latency to paw withdrawal to a thermal stimulus (CCI-mice; [10]) [s]	decrease in mRNA levels of TNF-α, IL-1β and IL-6 compared to vehicle (TNF-α, IL-1β and IL-6; 14 dpi)	half-life (t1/2) [2]	decrease in mRNA levels of TNF-α, IL-1β and IL-6 compared to vehicle (TNF-α, IL-1β and IL-6; 56 dpi)	mRNA levels of IL-6 compared to vehicle (TNF-α, IL-1β and IL-6; 56 dpi)
O=C(Oc1cccc2c(OC(=O)c3cc(O)c(O)c(O)c3)cccc12)c1cc(O)c(O)c(O)c1 [Compound 23, 1,5-Bis [(3,4,5-trihydroxybenzoyl)oxy] naphthalene]	neither 23 nor 30 caused changes on body weight	no changes	1.4	4.07 ± 0.31	3.89 ± 0.43	4.57 ± 0.29	3.77 ± 0.59	4.38 ± 0.3	3.93 ± 0.24	did not detect differences at any time point analyzed	4.41 ± 0.27	3.71 ± 0.29	no differences	–	–	–
epigallocatechin-3-gallate [EGCG]	–	reduced	–	3.93 ± 0.33	3.83 ± 0.23	5.01 ± 0.35	4.28 ± 0.45	13.01 ± 1.02	8.58 ± 0.9	increase in paw withdrawal latency in CCI-mice treated with EGCG from 7 to 21 dpi	9.38 ± 0.66	6.15 ± 0.42	~3 fold	< 0,1 h	not observed	–
O=C(Oc1ccc(-c2ccc(OC(=O)c3cc(O)c(O)c(O)c3)cc2)cc1)c1cc(O)c(O)c(O)c1 [Compound 30, 4,4′-Bis [(3,4,5-trihydroxybenzoyl)oxy]-1,1′-biphenyl]	neither 23 nor 30 caused changes on body weight	reduced	1.9	3.71 ± 0.39	4.11 ± 0.51	3.93 ± 0.37	4.33 ± 0.57	4.31 ± 0.3	7.61 ± 0.67	augmentation in the paw withdrawal latency from 14 to 56 dpi	4.79 ± 0.44	6.49 ± 0.53	~3 fold	–	not observed	slight decrease
